Test results from PMC8875242, “Evaluation of the Potency of Anti-HIV and Anti-HCV Drugs to Inhibit P-Glycoprotein Mediated Efflux of Digoxin in Caco-2 Cell Line and Human Precision-Cut Intestinal Slices” (Pharmaceuticals, 2022).
Where a name gives a salt, the structure may show the parent alone. Read-outs that look alike come from different tables or passages of the source.

What was measured:
ABCB1 [1] = target: T1, ABCB1 (Homo sapiens, UniProt P08183); experiment: Bidirectional transport of [^3H]-digoxin across Caco-2 monolayers
Method: Caco-2 cells were seeded at a density of 3 × 10^5 cells per insert and cultured for 21 days in a standard cultivation medium containing 1% penicillin–streptomycin. The medium was changed every other day, during which the transepithelial electrical resistance (TEER) across the cell monolayers was measured using a Millicell-ERS instrument (Millipore Corporation, Bedford, MA, USA). […] For the bidirectional permeability assay, a Hanks’ balanced salt solution buffer was used. The pH in the A compartment was adjusted to 6.5 using a methanesulfonic acid solution, while that in the B compartment was adjusted to 7.4 using a HEPES solution [34, 80]. The volumes used were 0.5 mL and 1.5 mL in compartments A and B, respectively. To improve the reproducibility of the results, the receiver compartment always contained 1% bovine serum albumin, as previously recommended. […] Samples (200 µL) were collected after 1 and 2 h from the receiver compartment; after the first collection, fresh receiver solution was added to the receiver compartment to maintain the original volume. The concentration of [^3H]-digoxin was quantified using a Tri-Carb 2900TR liquid scintillation analyzer (Packard Bioscience, Meriden, CT, USA). Its concentration in the samples collected during Caco-2 experiments was measured after adding 1 mL of Ultima Gold^TM Cocktail. A to B and B to A transport were evaluated in terms of an apparent permeability coefficient (Papp), calculated using the equation in [80, 81]. […] The efflux ratio (rPapp) was then calculated using the equation [80, 82]:rPapp = (Papp B to A)/(Papp A to B)(2)

ABCB1 [2] = target: T1, ABCB1; experiment: Ex vivo [^3H]-digoxin accumulation in hPCIS prepared from the jejunum
Method: Ex vivo accumulation assays were performed as previously described. Directly after surgery, the resected part of the human jejunum was placed in cold (4 °C) Krebs–Henseleit buffer oxygenated with carbogen gas. The muscle layer was removed, and the remaining mucosa was cut into fragments measuring approximately 5 by 20 mm, which were then embedded in a 3% agarose solution (3% (wt/vol) in 0.9% NaCl, 37 °C). PCIS of approximately 300 µm thickness were cut using a Krumdieck tissue slicer (Alabama R&D, Munford, AL, USA). […] Both incubation steps were conducted in a humidified atmosphere of […] and 5% CO2 at 37 °C [32, 34, 35]. The accumulation of [^3H]-digoxin was stopped after 2 h of incubation by washing the slices twice in the Krebs–Henseleit cold buffer (4 °C). […] The samples were then centrifuged (10 min; 7800 g). Concentrations of [^3H]-digoxin in the supernatant samples (300 µL) were assessed after mixing them with 1.5 mL of Ultima Gold™ via scintillation counting (Tri-Carb 2900TR liquid scintillation analyzer, Packard Bioscience). The pellets obtained during centrifugation were dried overnight at 37 °C and then solubilized in 200 µL of 5 M NaOH for 24 h. Milli-Q water was then added to the samples to achieve a NaOH concentration of 1 M. The protein content was measured using a bicinchoninic acid protein kit (Thermo Fisher Scientific, Waltham, MA, USA). The measured [^3H]-digoxin concentrations were normalized against the protein content.

ABCB1 [3] = target: T1, ABCB1; parameters: confirming the functional expression of ABCB1 in the Caco-2 cells; host or cells: Caco-2; method as in PMID 31481446; conditions: hPCIS, cited from earlier work
ABCB1 [4] = target: T1, ABCB1; parameters: confirming the functional expression of ABCB1 in the Caco-2 cells; host or cells: Caco-2; method as in PMID 31481446; conditions: Caco-2, cited from earlier work
Solubility = assay type: physicochemical; conditions: incubation medium, 0.1% DMSO
Method: The stock solutions were stored at −20 °C before use. The final concentration of DMSO was 0.1% in all experiments. The final concentrations of EtOH in hPCIS and Caco-2 cells were 0.03% and 0.012%, respectively.

ABCB1 [5] = tested on: ABCB1; parameters: method as in PMID 23132334; conditions: apparent activity at 100 µM; cited from earlier work
[6] = cited from earlier work
ABCB1 [7] = conditions: suggested; cited from earlier work

T1 sequence (P08183 whole entry): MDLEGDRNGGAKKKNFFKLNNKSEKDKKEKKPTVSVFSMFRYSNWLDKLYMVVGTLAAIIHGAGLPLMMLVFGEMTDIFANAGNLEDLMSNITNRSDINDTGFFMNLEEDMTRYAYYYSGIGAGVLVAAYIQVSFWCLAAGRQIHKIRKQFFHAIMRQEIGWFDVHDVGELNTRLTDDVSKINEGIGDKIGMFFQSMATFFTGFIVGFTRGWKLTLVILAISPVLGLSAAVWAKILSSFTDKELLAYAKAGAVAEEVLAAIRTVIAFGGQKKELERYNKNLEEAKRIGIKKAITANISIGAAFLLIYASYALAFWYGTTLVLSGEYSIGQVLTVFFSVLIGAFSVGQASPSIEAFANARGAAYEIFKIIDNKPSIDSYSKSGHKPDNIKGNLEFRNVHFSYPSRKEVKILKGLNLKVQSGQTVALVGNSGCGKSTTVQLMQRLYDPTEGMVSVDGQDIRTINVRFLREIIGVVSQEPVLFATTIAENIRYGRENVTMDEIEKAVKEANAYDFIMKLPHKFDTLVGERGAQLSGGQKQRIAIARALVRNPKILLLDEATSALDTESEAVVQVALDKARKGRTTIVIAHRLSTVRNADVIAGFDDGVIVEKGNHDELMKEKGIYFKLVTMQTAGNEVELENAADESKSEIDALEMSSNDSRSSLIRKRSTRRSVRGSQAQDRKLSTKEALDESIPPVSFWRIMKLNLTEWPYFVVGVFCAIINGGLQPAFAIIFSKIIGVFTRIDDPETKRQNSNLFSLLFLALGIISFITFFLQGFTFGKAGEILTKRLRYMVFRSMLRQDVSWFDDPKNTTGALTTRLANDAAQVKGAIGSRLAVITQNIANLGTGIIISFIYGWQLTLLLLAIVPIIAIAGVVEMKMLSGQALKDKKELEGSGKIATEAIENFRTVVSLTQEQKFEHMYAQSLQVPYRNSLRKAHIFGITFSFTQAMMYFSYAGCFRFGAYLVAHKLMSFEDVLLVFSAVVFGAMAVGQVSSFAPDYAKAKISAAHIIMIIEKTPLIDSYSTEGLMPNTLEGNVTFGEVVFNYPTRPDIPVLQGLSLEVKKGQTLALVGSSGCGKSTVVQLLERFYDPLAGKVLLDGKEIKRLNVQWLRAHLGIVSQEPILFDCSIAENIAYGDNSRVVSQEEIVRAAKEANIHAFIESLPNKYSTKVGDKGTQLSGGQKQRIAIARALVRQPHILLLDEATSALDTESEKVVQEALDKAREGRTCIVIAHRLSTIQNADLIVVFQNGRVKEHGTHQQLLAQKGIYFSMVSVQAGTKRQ

Nc1nc(NC2CC2)c2ncn([C@H]3C=C[C@@H](CO)C3)c2n1 [Abacavir, abacavir]
Digoxin Inhibition (bidirectional transport, in words) (ABCB1 [1]; compound 100 µM): No significant effect
Digoxin Inhibition in human PCIS (in words) (ABCB1 [2]; compound 100 µM, hPCIS): did not induce any detectable inhibition

COC(=O)N[C@H](C(=O)N[C@@H](Cc1ccccc1)[C@@H](O)CN(Cc1ccc(-c2ccccn2)cc1)NC(=O)[C@@H](NC(=O)OC)C(C)(C)C)C(C)(C)C [Atazanavir, atazanavir]
RHD123 Inhibition in human PCIS (ABCB1 [3]; compound 50 µM): YES
Digoxin Inhibition (bidirectional transport, in words) (ABCB1 [1]; compound 50 µM): YES
Digoxin Inhibition in human PCIS (in words) (ABCB1 [2]; compound 20 µM, hPCIS): did not inhibit
Digoxin Inhibition in human PCIS (in words) (ABCB1 [2]; compound 50 µM, hPCIS): YES
RHD123 Inhibition (bidirectional transport) (ABCB1 [4]; compound 50 µM): YES

COC(=O)N[C@H](C(=O)N1CCC[C@H]1c1nc(-c2ccc(-c3ccc(-c4c[nH]c([C@@H]5CCCN5C(=O)[C@@H](NC(=O)OC)C(C)C)n4)cc3)cc2)c[nH]1)C(C)C [Daclatasvir, daclatasvir]
Digoxin Inhibition in human PCIS (in words) (ABCB1 [2]; compound 20 µM, hPCIS): YES
RHD123 Inhibition (bidirectional transport) (ABCB1 [4]; compound 20 µM): YES

CC(C)CN(C[C@@H](O)[C@H](Cc1ccccc1)NC(=O)O[C@H]1CO[C@H]2OCC[C@H]21)S(=O)(=O)c1ccc(N)cc1 [Darunavir, darunavir]
Digoxin Inhibition in human PCIS (in words) (ABCB1 [2]; compound 50 µM, hPCIS): did not inhibit

C[C@H]1O[C@@H](O[C@H]2[C@@H](O)C[C@H](O[C@H]3[C@@H](O)C[C@H](O[C@H]4CC[C@@]5(C)[C@H](CC[C@@H]6[C@@H]5C[C@@H](O)[C@]5(C)[C@@H](C7=CC(=O)OC7)CC[C@]65O)C4)O[C@@H]3C)O[C@@H]2C)C[C@H](O)[C@@H]1O [Digoxin, digoxin]
efflux ratio at 2 h, 6 nM (ABCB1 [1]; human): 9.53 ± 2.22

C[C@@H]1CCO[C@H]2Cn3cc(C(=O)NCc4ccc(F)cc4F)c(=O)c(O)c3C(=O)N12 [Dolutegravir, dolutegravir]
Solubility (in words) (Solubility): limited solubility
Digoxin Inhibition (bidirectional transport, in words) (ABCB1 [1]; compound 10 µM): No significant effect
Digoxin Inhibition in human PCIS (in words) (ABCB1 [2]; compound 10 µM, hPCIS): did not induce any detectable inhibition
Inhibition of digoxin transport in MDCK-ABCB1 cells (ABCB1 [5]): weak inhibitor

COC(=O)N[C@H](C(=O)N1CCC[C@H]1c1nc(-c2ccc3c(c2)O[C@@H](c2ccccc2)n2c-3cc3cc(-c4c[nH]c([C@@H]5CCCN5C(=O)[C@@H](NC(=O)OC)C(C)C)n4)ccc32)c[nH]1)C(C)C [Elbasvir, elbasvir]
Solubility (in words) (Solubility): low solubility
Increase in plasma AUC (intestinal ABCB1 inhibition) ([6]; humans): 11%
Digoxin Inhibition in human PCIS (in words) (ABCB1 [2]; compound 5 µM, hPCIS): no inhibition

Cc1cc(C#N)cc(C)c1Oc1nc(Nc2ccc(C#N)cc2)nc(N)c1Br [Etravirine, etravirine]
Solubility (in words) (Solubility): low solubility
Digoxin Inhibition (bidirectional transport, in words) (ABCB1 [1]; compound 20 µM): YES
Digoxin Inhibition in human PCIS (in words) (ABCB1 [2]; compound 20 µM, hPCIS): did not inhibit

C=C[C@@H]1C[C@]1(NC(=O)[C@@H]1C[C@@H]2CN1C(=O)[C@H](C(C)(C)C)NC(=O)O[C@@H]1C[C@H]1CCCCCc1nc3ccc(OC)cc3nc1O2)C(=O)NS(=O)(=O)C1CC1.O [Grazoprevir, grazoprevir]
Digoxin Inhibition in human PCIS (in words) (ABCB1 [2]): increased [^3H]-digoxin uptake

COC(=O)N[C@H](C(=O)N1CC2(CC2)C[C@H]1c1ncc(-c2ccc3c(c2)C(F)(F)c2cc(-c4ccc5nc([C@@H]6[C@H]7CC[C@H](C7)N6C(=O)[C@@H](NC(=O)OC)C(C)C)[nH]c5c4)ccc2-3)[nH]1)C(C)C [Ledipasvir, ledipasvir]
Solubility (in words) (Solubility): low solubility
Digoxin Inhibition (bidirectional transport, in words) (ABCB1 [1]; compound 50 µM): YES
Digoxin Inhibition in human PCIS (in words) (ABCB1 [2]; compound 20 µM, hPCIS): no inhibition
Digoxin Inhibition in human PCIS (in words) (ABCB1 [2]; compound 50 µM, hPCIS): no inhibition
RHD123 Inhibition (bidirectional transport) (ABCB1 [4]; compound 50 µM): YES

Cc1cccc(C)c1OCC(=O)N[C@@H](Cc1ccccc1)[C@@H](O)C[C@H](Cc1ccccc1)NC(=O)[C@H](C(C)C)N1CCCNC1=O [Lopinavir, lopinavir]
RHD123 Inhibition in human PCIS (ABCB1 [3]; compound 50 µM): YES
Digoxin Inhibition in human PCIS (in words) (ABCB1 [2]; compound 20 µM, hPCIS): did not induce any detectable inhibition
Digoxin Inhibition in human PCIS (in words) (ABCB1 [2]; compound 50 µM, hPCIS): YES

Cc1cc(/C=C/C#N)cc(C)c1Nc1ccnc(Nc2ccc(C#N)cc2)n1 [Rilpivirine, rilpivirine]
Digoxin Inhibition (bidirectional transport, in words) (ABCB1 [1]; compound 20 µM): YES
Effect on the pharmacokinetics of digoxin or tenofovir DF in vivo ([6]; dose of 25 mg/day): does not significantly affect
Digoxin Inhibition in human PCIS (in words) (ABCB1 [2]; compound 20 µM, hPCIS): did not inhibit

CC(C)(C)NC(=O)[C@@H]1C[C@@H]2CCCC[C@@H]2CN1C[C@@H](O)[C@H](Cc1ccccc1)NC(=O)[C@H](CC(N)=O)NC(=O)c1ccc2ccccc2n1 [Saquinavir, saquinavir]
RHD123 Inhibition in human PCIS (ABCB1 [3]; compound 20 µM): YES
Digoxin Inhibition (bidirectional transport, in words) (ABCB1 [1]; compound 20 µM): YES
Digoxin Inhibition in human PCIS (in words) (ABCB1 [2]; compound 5 µM, hPCIS): did not induce any detectable inhibition
Digoxin Inhibition in human PCIS (in words) (ABCB1 [2]; compound 20 µM, hPCIS): YES
RHD123 Inhibition (bidirectional transport) (ABCB1 [4]; compound 20 µM): YES

CC(C)OC(=O)[C@H](C)N[P@](=O)(OC[C@H]1O[C@@H](n2ccc(=O)[nH]c2=O)[C@](C)(F)[C@@H]1O)Oc1ccccc1 [Sofosbuvir, sofosbuvir]
Digoxin Inhibition in human PCIS (in words) (ABCB1 [2]): no effect

CC(C)OC(=O)OCOP(=O)(CO[C@H](C)Cn1cnc2c(N)ncnc21)OCOC(=O)OC(C)C [Tenofovir DF, tenofovir disoproxil fumarate]
Digoxin Inhibition in human PCIS (in words) (ABCB1 [2]; compound 100 µM, hPCIS): did not induce any detectable inhibition

COC[C@H]1C[C@@H](c2ncc(-c3ccc4c(c3)COc3cc5c(ccc6nc([C@@H]7CC[C@H](C)N7C(=O)[C@@H](NC(=O)OC)C(C)C)[nH]c65)cc3-4)[nH]2)N(C(=O)[C@H](NC(=O)OC)c2ccccc2)C1 [Velpatasvir, velpatasvir]
Solubility (in words) (Solubility): limited solubility
Digoxin Inhibition (bidirectional transport, in words) (ABCB1 [1]; compound 5 µM): No significant effect
IC50 (ABCB1 [7]): ~20.6 µM
Increase of digoxin exposure ([6]; healthy volunteers): 34%

Cc1cn([C@H]2C[C@H](N=[N+]=[N-])[C@@H](CO)O2)c(=O)[nH]c1=O [Zidovudine, zidovudine]
Digoxin Inhibition (bidirectional transport, in words) (ABCB1 [1]; compound 100 µM): No significant effect
Digoxin Inhibition in human PCIS (in words) (ABCB1 [2]; compound 100 µM, hPCIS): did not induce any detectable inhibition

maraviroc
Digoxin Inhibition (bidirectional transport, in words) (ABCB1 [1]; compound 100 µM): No significant effect
Digoxin Inhibition in human PCIS (in words) (ABCB1 [2]; compound 100 µM, hPCIS): did not induce any detectable inhibition
RHD123 Inhibition (bidirectional transport) (ABCB1 [4]; compound 100 µM): YES
